Assay results taken from patent US10315996B2, “ROR gamma (RORγ) modulators” (LEAD PHARMA HOLDING B.V., priority 2015, dated 2019).

Target: T1, RORγ (Homo sapiens, UniProt P51449)
T1 construct: expressed in transfected cells; host or cells: 293FT cells (Invitrogen), expression vector pFN26A (Promega)
T1 sequence (P51449 269-508 limits assumed): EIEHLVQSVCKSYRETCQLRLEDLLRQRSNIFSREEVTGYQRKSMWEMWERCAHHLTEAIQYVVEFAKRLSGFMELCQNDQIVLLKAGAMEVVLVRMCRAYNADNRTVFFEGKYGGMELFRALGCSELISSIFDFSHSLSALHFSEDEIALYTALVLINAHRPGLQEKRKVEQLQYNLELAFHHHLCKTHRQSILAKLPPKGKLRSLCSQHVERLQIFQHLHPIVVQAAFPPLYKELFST
Assay: RORγ GAL4 reporter gene assay
Type: cell-based
Conditions: inhibition of RORγ activity, GAL4-RORγ-LBD luciferase reporter in 293FT cells, overnight incubation; read-out: mean pIC50 (converted)
Outline: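 293FT cells were transiently co-transfected with GAL4-DBD–RORγ-LBD (or GAL4-VP16 control) and a 9×UAS luc2P reporter, then plated at 60,000 cells/well. Compound was added at final 0.2% DMSO for 16-24 h at 37 °C, and inhibition was measured by firefly luciferase luminescence.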

| Compound | IC50 [nM] |
| --- | --- |
| O=C(Cc1ccc(S(=O)(=O)CC2CC2)cc1)Nc1ccc(C(=O)Nc2c(Cl)cccc2Cl)cc1 [Example 147, 4-[2-(4-cyclopropylmethanesulfonylphenyl)acetamido]-N-(2,6-dichlorophenyl)benzamide] | ≤ 1000 |
| O=C(Cc1ccc(S(=O)(=O)CC2CC2)cc1)Nc1ccc(C(=O)N(c2cccnc2)C2CC2)cc1 [Example 143, N-cyclopropyl-4-[2-(4-cyclopropylmethanesulfonylphenyl)acetamido]-N-(pyridin-3-yl)benzamide] | ≤ 100 |
| CCN(C(=O)c1ccc(NC(=O)Cc2ccc(S(=O)(=O)CC3CC3)cc2)cc1)c1cc(C)no1 [Example 94, 4-[2-(4-cyclopropylmethanesulfonylphenyl)acetamido]-N-ethyl-N-(3-methyl-1,2-oxazol-5-yl)benzamide] | ≤ 10 |
| CCCNC(=O)c1ccc(NC(=O)Cc2ccc(S(=O)(=O)CC3CC3)cc2)cc1 [Example 1, 4-[2-(4-cyclopropylmethanesulfonylphenyl)acetamido]-N-propylbenzamide] | ≤ 1000 |
| CCN(C(=O)c1ccc(NC(=O)Cc2ccc(S(=O)(=O)NC3CC3)cc2)cc1)c1cc(C)no1 [Example 95, 4-{2-[4-(cyclopropylsulfamoyl)phenyl]acetamido}-N-ethyl-N-(3-methyl-1,2-oxazol-5-yl)benzamide] | ≤ 100 |
| O=C(Cc1ccc(S(=O)(=O)CC2CC2)cc1)Nc1ccc(C(=O)N(c2ccccc2)C2CC2)cc1 [Example 140, N-cyclopropyl-4-[2-(4-cyclopropylmethanesulfonylphenyl)acetamido]-N-phenylbenzamide] | ≤ 10 |
| Cc1ccc(N(C(=O)c2ccc(NC(=O)Cc3ccc(S(=O)(=O)CC4CC4)nc3)cc2)C(C)(C)CO)cc1 [Example 161, 4-[2-(6-cyclopropylmethanesulfonylpyridin-3-yl)acetamido]-N-(1-hydroxy-2-methylpropan-2-yl)-N-(4-methylphenyl)benzamide] | ≤ 100 |
| CCOC(=O)CN(Cc1ccccc1)C(=O)c1ccc(NC(=O)Cc2ccc(S(=O)(=O)CC3CC3)cc2)cc1 [Example 32, ethyl 2-(N-benzyl-1-{4-[2-(4-cyclopropylmethanesulfonylphenyl)acetamido]phenyl}formamido)acetate] | ≤ 10 |
| CCN(C(=O)c1ccc(NC(=O)Cc2ccc(S(=O)(=O)CC3CC3)cc2)cc1)c1cc(C)on1 [Example 89, 4-[2-(4-cyclopropylmethanesulfonylphenyl)acetamido]-N-ethyl-N-(5-methyl-1,2-oxazol-3-yl)benzamide] | ≤ 10 |
| Cc1ccc(N(C(=O)c2ccc(NC(=O)Cc3ccc(S(=O)(=O)CC4CC4)cc3)cc2)C(C)(C)C2CCCO2)cc1 (stereo not drawn) [Example 133, 4-[2-(4-cyclopropylmethanesulfonylphenyl)acetamido]-N-(4-methylphenyl)-N-[2-(oxolan-2-yl)propan-2-yl]benzamide] | ≤ 100 |
| CC(C)CN(C(=O)c1ccc(NC(=O)Cc2ccc(S(=O)(=O)CC3CC3)cc2)cc1)c1ccccc1 [Example 37, 4-[2-(4-cyclopropylmethanesulfonylphenyl)acetamido]-N-(2-methylpropyl)-N-phenylbenzamide] | ≤ 10 |
| CCN(C(=O)c1ccc(NC(=O)Cc2ccc(S(=O)(=O)CC3CC3)cc2)c(OC)c1)c1ccccc1 [Example 101, 4-[2-(4-cyclopropylmethanesulfonylphenyl)acetamido]-N-ethyl-3-methoxy-N-phenylbenzamide] | ≤ 1000 |
| CC(C)(CN1CCOCC1)NC(=O)c1ccc(NC(=O)Cc2ccc(S(=O)(=O)CC3CC3)cc2)cc1 [Example 60, 4-[2-(4-cyclopropylmethanesulfonylphenyl)acetamido]-N-[2-methyl-1-(morpholin-4-yl)propan-2-yl]benzamide] | ≤ 1000 |
| Cc1ccccc1N(C)C(=O)c1ccc(NC(=O)Cc2ccc(S(=O)(=O)CC3CC3)cc2)cc1F [Example 116, 4-[2-(4-cyclopropylmethanesulfonylphenyl)acetamido]-2-fluoro-N-methyl-N-(2-methylphenyl)benzamide] | ≤ 100 |
| Cc1cc(NC(=O)Cc2ccc(S(=O)(=O)CC3CC3)cc2)ccc1C(=O)N(C)c1ccccc1F [Example 165, 4-[2-(4-cyclopropylmethanesulfonylphenyl)acetamido]-N-(2-fluorophenyl)-N,2-dimethylbenzamide] | ≤ 100 |
| CCOC(=O)c1csc(C2CCCN2C(=O)c2ccc(NC(=O)Cc3ccc(S(=O)(=O)CC4CC4)cc3)cc2)n1 (stereo not drawn) [Example 38, ethyl 2-(1-{4-[2-(4-cyclopropylmethanesulfonylphenyl)acetamido]benzoyl}pyrrolidin-2-yl)-1,3-thiazole-4-carboxylate] | ≤ 1000 |
| CCN(C(=O)c1ccc(NC(=O)Cc2ccc(S(=O)(=O)CC3CC3)nc2)cc1F)c1ccccc1 [Example 156, 4-[2-(6-cyclopropylmethanesulfonylpyridin-3-yl)acetamido]-N-ethyl-2-fluoro-N-phenylbenzamide] | ≤ 100 |

| Compound | IC50 [nM] |
| --- | --- |
| O=C(Cc1ccc(S(=O)(=O)CC2CC2)cc1)Nc1ccc(C(=O)N2CCc3ccccc32)cc1 [Example 41, 2-(4-cyclopropylmethanesulfonylphenyl)-N-[4-(2,3-dihydro-1H-indole-1-carbonyl)phenyl]acetamide] | ≤ 1000 |
| CCN(C(=O)c1ccc(NC(=O)Cc2ccc(S(=O)(=O)CC3CC3)cc2)cc1)c1c(C)noc1C [Example 108, 4-[2-(4-cyclopropylmethanesulfonylphenyl)acetamido]-N-(dimethyl-1,2-oxazol-4-yl)-N-ethyl-benzamide] | ≤ 100 |
| Cc1cc(N(C)C(=O)c2ccc(NC(=O)Cc3ccc(S(=O)(=O)NC4CC4)cc3)cc2)no1 [Example 91, 4-{2-[4-(cyclopropylsulfamoyl)phenyl]acetamido}-N-methyl-N-(5-methyl-1,2-oxazol-3-yl)benzamide] | ≤ 1000 |
| CN(C(=O)c1ccc(NC(=O)Cc2ccc(S(=O)(=O)CC3CC3)cc2)cc1Cl)c1ccccc1F [Example 127, 2-chloro-4-[2-(4-cyclopropylmethanesulfonylphenyl)acetamido]-N-(2-fluorophenyl)-N-methylbenzamide] | ≤ 10 |
| O=C(Cc1ccc(S(=O)(=O)CC2CC2)cc1)Nc1ccc(C(=O)N(c2ccccn2)C2CCC2)cc1 [Example 139, N-cyclobutyl-4-[2-(4-cyclopropylmethanesulfonylphenyl)acetamido]-N-(pyridin-2-yl)benzamide] | ≤ 10 |
| CN(Cc1ccccc1)C(=O)c1ccc(NC(=O)Cc2ccc(S(=O)(=O)CC3CC3)cc2)cc1 [Example 5, N-benzyl-4-[2-(4-cyclopropylmethanesulfonylphenyl)acetamido]-N-methylbenzamide] | ≤ 100 |
| Cc1cc(N(C)C(=O)c2ccc(NC(=O)Cc3ccc(S(=O)(=O)CC4CC4)cc3)cc2)no1 [Example 90, 4-[2-(4-cyclopropylmethanesulfonylphenyl)acetamido]-N-methyl-N-(5-methyl-1,2-oxazol-3-yl)benzamide] | ≤ 10 |
| CCN(C(=O)c1ccc(NC(=O)Cc2ccc(S(=O)(=O)CC3CC3)cc2)cc1F)c1cccc(C)c1C [Example 119, 4-[2-(4-cyclopropylmethanesulfonylphenyl)acetamido]-N-(2,3-dimethylphenyl)-N-ethyl-2-fluorobenzamide] | ≤ 10 |
| CCN(C(=O)c1ccc(NC(=O)Cc2ccc(S(=O)(=O)CC3CC3)cc2)cc1Cl)c1ccccc1Cl [Example 128, 2-chloro-N-(2-chlorophenyl)-4-[2-(4-cyclopropylmethanesulfonylphenyl)acetamido]-N-ethylbenzamide] | ≤ 10 |
| CCCN(C(=O)c1ccc(NC(=O)Cc2ccc(S(=O)(=O)CC3CC3)cc2)cc1)c1cccnc1 [Example 20, 4-[2-(4-cyclopropylmethanesulfonylphenyl)acetamido]-N-propyl-N-(pyridin-3-yl)benzamide] | ≤ 10 |
| O=C(Cc1ccc(S(=O)(=O)CC2CC2)cc1)Nc1ccc(C(=O)N(c2ccccn2)C2CCOC2)cc1 (stereo not drawn) [Example 136, 4-[2-(4-cyclopropylmethanesulfonylphenyl)acetamido]-N-(oxolan-3-yl)-N-(pyridin-2-yl)benzamide] | ≤ 100 |
| O=C(Cc1ccc(S(=O)(=O)CC2CC2)cc1)Nc1ccc(C(=O)N(c2ccccc2)C2CC(F)(F)C2)cc1 [Example 144, 4-[2-(4-cyclopropylmethanesulfonylphenyl)acetamido]-N-(3,3-difluorocyclobutyl)-N-phenylbenzamide] | ≤ 10 |
| CC(C)(C)C1COc2ccccc2N1C(=O)c1ccc(NC(=O)Cc2ccc(S(=O)(=O)CC3CC3)cc2)cc1 (stereo not drawn) [Example 121, N-[4-(3-tert-butyl-3,4-dihydro-2H-1,4-benzoxazine-4-carbonyl)phenyl]-2-(4-cyclopropylmethanesulfonylphenyl)acetamide] | ≤ 100 |
| CCCN(Cc1ccccc1)C(=O)c1ccc(NC(=O)Cc2ccc(S(=O)(=O)NC3CC3)cc2)cc1 [Example 23, N-benzyl-4-{2-[4-(cyclopropylsulfamoyl)phenyl]acetamido}-N-propylbenzamide] | ≤ 1000 |
| O=C(Cc1ccc(S(=O)(=O)CC2CC2)cc1)Nc1ccc(C(=O)N[C@H](c2ccc(Cl)cc2)C(F)(F)F)cc1 [Example 76, N-[(1R)-1-(4-chlorophenyl)-2,2,2-trifluoroethyl]-4-[2-(4-cyclopropylmethanesulfonylphenyl)acetamido]benzamide] | ≤ 1000 |
| O=C(Cc1ccc(S(=O)(=O)CC2CC2)cc1)Nc1ccc(C(=O)N(c2ccccn2)C2CC2)cc1 [Example 137, N-cyclopropyl-4-[2-(4-cyclopropylmethanesulfonylphenyl)acetamido]-N-(pyridin-2-yl)benzamide] | ≤ 100 |
